One assay has as its target BTK (Homo sapiens (Human), UniProt Q06187). The experiment in a line: KdELECT assay for binding affinity to BTK. Here is the method: (§1) Compounds were tested using a KdELECT assay. Kinase-tagged T7 phage strains were prepared in an E. coli host derived from the BL21 strain. E. coli were grown to log-phase and infected with T7 phage and incubated with shaking at 32° C. until lysis. The lysates were centrifuged and filtered to remove cell debris. The remaining kinases were produced in HEK-293 cells and subsequently tagged with DNA for qPCR detection. Streptavidin-coated magnetic beads were treated with biotinylated small molecule ligands for 30 minutes at room temperature to generate affinity resins for kinase assays. The liganded beads were blocked with excess biotin and washed with blocking buffer (SeaBlock (Pierce), 1% BSA, 0.05% Tween 20, 1 mM DTT) to remove unbound ligand and to reduce non-specific binding. Binding reactions were assembled by combining kinases, liganded affinity beads, and test compounds in 1× binding buffer (20% SeaBlock, 0.17×PBS, 0.05% Tween 20, 6 mM DTT). Test compounds were prepared as 111X stocks in 100% DMSO. Kd values were determined using an 11-point 3-fold compound dilution series with three DMSO control points. All compounds for Kd measurements are distributed by acoustic transfer (non-contact dispensing) in 100% DMSO. The compounds were then diluted directly into the assays such that the final concentration of DMSO was 0.9%. All reactions performed in polypropylene 384-well plate. Each was a final volume of 0.02 mL. The assay plates were incubated at room temperature with shaking for 1 hour and the affinity beads were washed with wash buffer (1×PBS, 0.05% Tween 20). The beads were then re-suspended in elution buffer (1×PBS, 0.05% Tween 20, 0.5 μM nonbiotinylated affinity ligand) and incubated at room temperature with shaking for 30 minutes. The kinase concentration in the eluates was measured by qPCR.

A further assay concerns the target CDK9 (Homo sapiens (Human), UniProt P50750). Nature of the assay: KdELECT assay for binding affinity to CDK9. Here is the method:
as §1, with “KdELECT.” for “KdELECT assay.”, “1×binding” for “1× binding”

The subject of a further assay is HeLa cells. The experiment in a line: Cellular growth inhibition assay (CellTiter-Glo), HeLa cells. The following applies: read-out: CTG HELA GI50. It counts as cell-based. A digest of the protocol:
(§2)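 HeLa or HEK293 cells in DMEM with 10% FBS exposed to titrated compound for three days at 37 °C, 5% CO2, 24 h after seeding. Viability by CellTiter-Glo 2.0 luminescence, normalized to DMSO Day 0 and Day 3 readings; four-parameter fit gives GI50.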
Background: Cellular ATP, detected with luciferase, serves as a proxy for viable cell number.

Another assay has as its system HEK293 cells. Nature of the assay: Cellular growth inhibition assay (CellTiter-Glo), HEK293 cells. It counts as cell-based. The conditions noted are these: read-out: CTG HEK293 GI50. The essentials:
as §2

Setting [1] is: Homo sapiens, 72 h, HeLa cells, three days of compound treatment, CellTiter-Glo 2.0.
The mark [2] stands for this setting: Homo sapiens, 72 h, HEK293 cells, three days of compound treatment, CellTiter-Glo 2.0.

The structures appear in SMILES notation. Read-outs that look alike come from different tables or passages of the source. Where only a bound is given, the exact number is not on record here.

BTK, sequence (Q06187 whole entry): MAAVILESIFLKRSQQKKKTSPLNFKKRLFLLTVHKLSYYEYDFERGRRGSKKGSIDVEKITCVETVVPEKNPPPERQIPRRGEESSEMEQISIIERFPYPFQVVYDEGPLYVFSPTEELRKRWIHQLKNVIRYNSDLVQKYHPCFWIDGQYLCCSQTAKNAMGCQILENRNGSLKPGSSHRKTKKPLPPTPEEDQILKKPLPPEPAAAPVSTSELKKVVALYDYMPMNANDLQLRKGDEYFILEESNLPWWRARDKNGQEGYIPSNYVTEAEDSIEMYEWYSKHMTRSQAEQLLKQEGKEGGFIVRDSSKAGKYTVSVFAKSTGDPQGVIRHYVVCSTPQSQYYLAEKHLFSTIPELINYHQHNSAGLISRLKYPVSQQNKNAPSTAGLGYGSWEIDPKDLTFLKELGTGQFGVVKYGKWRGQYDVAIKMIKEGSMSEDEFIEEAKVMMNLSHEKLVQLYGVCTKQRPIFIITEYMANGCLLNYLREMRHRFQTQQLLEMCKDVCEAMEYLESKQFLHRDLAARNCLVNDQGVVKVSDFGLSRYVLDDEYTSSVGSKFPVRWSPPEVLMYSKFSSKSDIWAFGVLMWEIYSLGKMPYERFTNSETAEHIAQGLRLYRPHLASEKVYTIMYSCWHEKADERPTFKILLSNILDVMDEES
CDK9, sequence (P50750 whole entry): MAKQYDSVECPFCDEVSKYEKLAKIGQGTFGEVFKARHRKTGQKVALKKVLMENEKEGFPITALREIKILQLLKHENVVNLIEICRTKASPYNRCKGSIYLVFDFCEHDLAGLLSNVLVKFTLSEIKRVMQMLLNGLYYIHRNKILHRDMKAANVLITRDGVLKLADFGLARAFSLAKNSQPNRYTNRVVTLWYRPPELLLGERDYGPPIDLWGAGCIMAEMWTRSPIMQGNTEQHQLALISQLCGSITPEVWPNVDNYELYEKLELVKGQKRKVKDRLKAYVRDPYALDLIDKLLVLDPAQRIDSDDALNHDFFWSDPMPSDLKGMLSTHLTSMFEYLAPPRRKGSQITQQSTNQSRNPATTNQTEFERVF

For the compound `CCc1cnn2c(NCc3ccc(OCCOCCOCCOCCOCCOC/C=C/C(=O)N4CCC[C@@H](n5nc(-c6ccc(Oc7ccccc7)cc6)c6c(N)ncnc65)C4)nc3)cc(N3CCCC[C@H]3CCO)nc12` [Compound I-42], the Kd at BTK is less than 50 nM; at CDK9, 50 to 500 nM. The GI50 was less than 500 nM with HeLa cells (setting [1]) and 500 to 1500 nM in the assay with HEK293 cells (setting [2]).
On to `CN(C/C=C/C(=O)N1CCC[C@@H](n2nc(-c3ccc(Oc4ccccc4)cc3)c3c(N)ncnc32)C1)CCOCCOCCOCCOCCNS(=O)(=O)c1ccc(Nc2ncc(Br)c(Nc3cccc(F)c3C(N)=O)n2)cc1` [Compound I-64, 2-[[2-[4-[2-[2-[2-[2-[2-[[(E)-4-[(3R)-3-[4-amino-3-(4-phenoxyphenyl)pyrazolo[3,4-d]pyrimidin-1-yl]-1-piperidyl]-4-oxo-but-2-enyl]-methyl-amino]ethoxy]ethoxy]ethoxy]ethoxy]ethylsulfamoyl]anilino]-5-bromo-pyrimidin-4-yl]amino]-6-fluoro-benzamide], for which the Kd on BTK is less than 50 nM; on CDK9, 500 to 2500 nM. Moreover, the GI50 was 1500 to 5000 nM in the assay with HeLa cells (setting [1]) and greater than 5000 nM in the assay on HEK293 cells (setting [2]).
For `CCc1cnn2c(NCc3ccc(CCOCCOCCN(C)C/C=C/C(=O)N4CCC[C@@H](n5nc(-c6ccc(Oc7ccccc7)cc6)c6c(N)ncnc65)C4)nc3)cc(N3CCCC[C@H]3CCO)nc12` [Compound I-67, (E)-1-((R)-3-(4-amino-3-(4-phenoxyphenyl)-1H-pyrazolo[3,4-d]pyrimidin-1-yl)piperidin-1-yl)-4-((2-(2-(2-(5-(((3-ethyl-5-((S)-2-(2-hydroxyethyl)piperidin-1-yl)pyrazolo[1,5-a]pyrimidin-7-yl)amino)methyl)pyridin-2-yl)ethoxy)ethoxy)ethyl)(methyl)amino)but-2-en-1-one], the Kd at BTK and at CDK9 was less than 50 nM throughout.
With `NC(=O)c1c(F)cccc1Nc1nc(Nc2ccc(S(=O)(=O)NCCOCCOCCOC3CCN(C/C=C/C(=O)N4CCC[C@@H](n5nc(-c6ccc(Oc7ccccc7)cc6)c6c(N)ncnc65)C4)CC3)cc2)ncc1Br` [Compound I-68, 2-[[2-[4-[2-[2-[2-[[1-[(E)-4-[(3R)-3-[4-amino-3-(4-phenoxyphenyl)pyrazolo[3,4-d]pyrimidin-1-yl]-1-piperidyl]-4-oxo-but-2-enyl]-4-piperidyl]oxy]ethoxy]ethoxy]ethylsulfamoyl]anilino]-5-bromo-pyrimidin-4-yl]amino]-6-fluoro-benzamide], the Kd on BTK is less than 50 nM; at CDK9, 500 to 2500 nM.
With `CCc1cnn2c(NCc3ccc(OCCCN4CCN(CCCN(C)C/C=C/C(=O)N5CCC[C@@H](n6nc(-c7ccc(Oc8ccccc8)cc7)c7c(N)ncnc76)C5)CC4)nc3)cc(N3CCCC[C@H]3CCO)nc12` [Compound I-69], the Kd at BTK and on CDK9 was less than 50 nM each time. In addition, the GI50 in the assay with HeLa cells (HeLa cells, three days of compound treatment, CellTiter-Glo 2.0) is less than 500 nM; in the assay on HEK293 cells (HEK293 cells, three days of compound treatment, CellTiter-Glo 2.0), less than 500 nM.
As for `CCc1cnn2c(NCc3ccc(OCCOCCOCCOCCOCCN(C)C/C=C/C(=O)N(C)CCOc4c(N)ncnc4-c4cc(F)cc(NC(=O)c5ccc(C6CC6)cc5F)c4C)nc3)cc(N3CCCC[C@H]3CCO)nc12` [Compound I-77], the equilibrium dissociation constant (Kd) lay in the range of 500 to 2500 nM on BTK and 50 to 500 nM at CDK9.
The matching figures for `Cc1c(NC(=O)c2ccc(C3CC3)cc2F)cc(F)cc1-c1ncnc(N)c1OCCN(C)C(=O)/C=C/CN1CCC(OCCOCCOCCNS(=O)(=O)c2ccc(Nc3ncc(Br)c(Nc4cccc(F)c4C(N)=O)n3)cc2)CC1` [Compound I-80, 2-[[2-[4-[2-[2-[2-[[1-[(E)-4-[2-[4-amino-6-[3-[(4-cyclopropyl-2-fluoro-benzoyl)amino]-5-fluoro-2-methyl-phenyl]pyrimidin-5-yl]oxyethyl-methyl-amino]-4-oxo-but-2-enyl]-4-piperidyl]oxy]ethoxy]ethoxy]ethylsulfamoyl]anilino]-5-bromo-pyrimidin-4-yl]amino]-6-fluoro-benzamide]: less than 50 nM and 50 to 500 nM.
Consider `CCc1cnn2c(NCc3ccc(=O)n(CCOCCOCCNS(=O)(=O)c4cc(F)cc(N(C(=O)[C@@H]5CCC(=O)N5c5cc(C#N)ccn5)C(C(=O)NC5CC(F)(F)C5)c5ccccc5Cl)c4)c3)cc(N3CCCC[C@H]3CCO)nc12` (stereo partly drawn) [Compound I-93, (2S)—N-[1-(2-chlorophenyl)-2-[(3,3-difluorocyclobutyl)amino]-2-oxo-ethyl]-1-(4-cyano-2-pyridyl)-N-[3-[2-[2-[2-[5-[ [[3-ethyl-5-[(2S)-2-(2-hydroxyethyl)-1-piperidyl]pyrazolo[1,5-a]pyrimidin-7-yl]amino]methyl]-2-oxo-1-pyridyl]ethoxy]ethoxy]ethylsulfamoyl]-5-fluoro-phenyl]-5-oxo-pyrrolidine-2-carboxamide], for which, at CDK9, the Kd lay in the range of 500 to 2500 nM. Moreover, the GI50 was 1500 to 5000 nM with HeLa cells (setting [1]) and greater than 5000 nM in the assay on HEK293 cells (setting [2]).
Compound `CCc1cnn2c(NCc3ccc(OCC(=O)N4CC(=O)N(c5cc(C#N)ccn5)[C@H](C(=O)N(c5cc(F)cc(F)c5)[C@H](C(=O)NC5CC(F)(F)C5)c5ccccc5Cl)C4)nc3)cc(N3CCCC[C@H]3CCO)nc12` [Compound I-96, (2S)—N-[(1S)-1-(2-chlorophenyl)-2-[(3,3-difluorocyclobutyl)amino]-2-oxo-ethyl]-1-(4-cyano-2-pyridyl)-N-(3,5-difluorophenyl)-4-[2-[[5-[[[3-ethyl-5-[(2S)-2-(2-hydroxyethyl)-1-piperidyl]pyrazolo[1,5-a]pyrimidin-7-yl]amino]methyl]-2-pyridyl]oxy]acetyl]-6-oxo-piperazine-2-carboxamide] gave a Kd on CDK9 of 50 to 500 nM. Further, the GI50 with HeLa cells (setting [1]) and in the assay with HEK293 cells (setting [2]) was less than 500 nM in each case.
Turning to `CCc1cnn2c(NCc3ccc(OCCOCCOCC(=O)N4CC(=O)N(c5cc(C#N)ccn5)[C@H](C(=O)N(c5cc(F)cc(F)c5)[C@H](C(=O)NC5CC(F)(F)C5)c5ccccc5Cl)C4)nc3)cc(N3CCCC[C@H]3CCO)nc12` [Compound I-97, (2S)—N-[(1S)-1-(2-chlorophenyl)-2-[(3,3-difluorocyclobutyl)amino]-2-oxo-ethyl]-1-(4-cyano-2-pyridyl)-N-(3,5-difluorophenyl)-4-[2-[2-[2-[[5-[[[3-ethyl-5-[(2S)-2-(2-hydroxyethyl)-1-piperidyl]pyrazolo[1,5-a]pyrimidin-7-yl]amino]methyl]-2-pyridyl]oxy]ethoxy]ethoxy]acetyl]-6-oxo-piperazine-2-carboxamide], the Kd on CDK9 was in the range of 50 to 500 nM. For the same compound, the GI50 with HeLa cells (Homo sapiens, HeLa, 72 h) is less than 500 nM; with HEK293 cells (Homo sapiens, HEK293, 72 h), less than 500 nM.
With `CCc1cnn2c(NCc3ccc(OCCOCCOCCOCCOCC(=O)N4CC(=O)N(c5cc(C#N)ccn5)[C@H](C(=O)N(c5cc(F)cc(F)c5)C(C(=O)NC5CC(F)(F)C5)c5ccccc5Cl)C4)nc3)cc(N3CCCC[C@H]3CCO)nc12` (stereo partly drawn) [Compound I-98, (2S)—N-[1-(2-chlorophenyl)-2-[(3,3-difluorocyclobutyl)amino]-2-oxo-ethyl]-1-(4-cyano-2-pyridyl)-N-(3,5-difluorophenyl)-4-[2-[2-[2-[2-[2-[[5-[[[3-ethyl-5-[(2S)-2-(2-hydroxyethyl)-1-piperidyl]pyrazolo[1,5-a]pyrimidin-7-yl]amino]methyl]-2-pyridyl]oxy]ethoxy]ethoxy]ethoxy]ethoxy]acetyl]-6-oxo-piperazine-2-carboxamide], the equilibrium dissociation constant (Kd) at CDK9 is 50 to 500 nM. Moreover, the GI50 with HeLa cells (setting [1]) and with HEK293 cells (setting [2]) was less than 500 nM each time.

The term Kd denotes the equilibrium constant for the complex coming apart. For orientation: GI50 means the concentration that inhibits growth by half.

For the origin of these results see patent US20250136619A1, “HETEROBIFUNCTIONAL COMPOUNDS AND THEIR USE IN TREATING DISEASE” (HALDA THERAPEUTICS OPCO, INC., priority 2021, published 2025).
